Earlier results, collected in US4451566A, “Methods and apparatus for enzymatically producing ethanol” (priority 1981, dated 1984).

System: Glucokinase (2.7.1.2), present in liver
Conditions: read-out: KM for d-glucose, phosphorylation of d-glucose with ATP as phosphate donor

OC[C@H]1OC(O)[C@H](O)[C@@H](O)[C@@H]1O (stereo partly drawn) [d-glucose]
Km: 100 mM
